According to the NIST ThermoML archive (doi:10.1016/j.tca.2008.10.015):
± gives the expanded uncertainty stated by the source.

Legend:
[1] = 101.33 kPa, Liquid, conductivity meter
[2] = molar heat capacity at constant pressure; details: 101.33 kPa, Liquid, Small sample (50 mg) DSC

Row | SMILES | electrical conductivity ([1]; 303.2 K) | electrical conductivity ([1]; 308.2 K) | electrical conductivity ([1]; 313.2 K) | electrical conductivity ([1]; 318.2 K) | electrical conductivity ([1]; 323.2 K) | electrical conductivity ([1]; 328.2 K) | electrical conductivity ([1]; 333.2 K) | electrical conductivity ([1]; 338.2 K) | electrical conductivity ([1]; 343.2 K) | electrical conductivity ([1]; 348.2 K) | electrical conductivity ([1]; 353.2 K) | molar heat capacity at constant pressure ([2]; 303.2 K) | molar heat capacity at constant pressure ([2]; 308.2 K) | molar heat capacity at constant pressure ([2]; 313.2 K) | molar heat capacity at constant pressure ([2]; 318.2 K) | molar heat capacity at constant pressure ([2]; 323.2 K) | molar heat capacity at constant pressure ([2]; 328.2 K) | molar heat capacity at constant pressure ([2]; 333.2 K) | molar heat capacity at constant pressure ([2]; 338.2 K) | molar heat capacity at constant pressure ([2]; 343.2 K) | further results
1 | CCCCn1cc[n+](C)c1.F[P-](F)(F)(F)(F)F [1-butyl-3-methylimidazolium hexafluorophosphate] | 0.114 ± 0.002 S/m | 0.149 ± 0.003 S/m | 0.193 ± 0.006 S/m | 0.245 ± 0.018 S/m | 0.308 ± 0.006 S/m | 0.383 ± 0.008 S/m | 0.468 ± 0.018 S/m | 0.556 ± 0.022 S/m | 0.664 ± 0.018 S/m | 0.917 ± 0.026 S/m | 1.21 ± 0.024 S/m | 412.06 ± 8.5 J/K/mol | 417.75 ± 11 J/K/mol | 420.59 ± 11 J/K/mol | 423.43 ± 11 J/K/mol | 423.43 ± 11 J/K/mol | 426.27 ± 11 J/K/mol | 429.12 ± 11 J/K/mol | 431.96 ± 11 J/K/mol | 434.8 ± 11 J/K/mol | molar heat capacity at constant pressure ([2]; 348.2 K): 440.48 ± 11 J/K/mol; molar heat capacity at constant pressure ([2]; 353.2 K): 443.32 ± 11 J/K/mol; molar heat capacity at constant pressure ([2]; 358.2 K): 443.32 ± 8.5 J/K/mol
2 | CCCCn1cc[n+](C)c1.COS(=O)(=O)[O-] [1-butyl-3-methylimidazolium methyl sulfate] | 0.217 ± 0.02 S/m | 0.276 ± 0.018 S/m | 0.348 ± 0.022 S/m | 0.43 ± 0.014 S/m | 0.522 ± 0.016 S/m | 0.626 ± 0.022 S/m | 0.741 ± 0.016 S/m | 0.867 ± 0.02 S/m | 1.01 ± 0.022 S/m | 1.32 ± 0.026 S/m | 1.67 ± 0.033 S/m | 375.47 ± 7.5 J/K/mol | 380.48 ± 7.5 J/K/mol | 382.98 ± 7.5 J/K/mol | 382.98 ± 7.5 J/K/mol | 385.49 ± 7.5 J/K/mol | 387.99 ± 7.5 J/K/mol | 390.49 ± 7.5 J/K/mol | 393 ± 7.5 J/K/mol | 393 ± 7.5 J/K/mol | molar heat capacity at constant pressure ([2]; 348.2 K): 398 ± 7.5 J/K/mol; molar heat capacity at constant pressure ([2]; 353.2 K): 398 ± 7.5 J/K/mol; molar heat capacity at constant pressure ([2]; 358.2 K): 400.51 ± 7.5 J/K/mol
3 | CCCCn1cc[n+](C)c1.F[B-](F)(F)F [1-butyl-3-methylimidazolium tetrafluoroborate] | 0.295 ± 0.016 S/m | 0.364 ± 0.018 S/m | 0.446 ± 0.009 S/m | 0.542 ± 0.011 S/m | 0.651 ± 0.013 S/m | 0.783 ± 0.016 S/m | 0.926 ± 0.019 S/m | 1.08 ± 0.022 S/m | 1.25 ± 0.025 S/m | 1.67 ± 0.033 S/m | 2.18 ± 0.044 S/m | 368.42 ± 6.8 J/K/mol | 370.68 ± 6.8 J/K/mol | 372.94 ± 6.8 J/K/mol | 375.2 ± 6.8 J/K/mol | 377.46 ± 6.8 J/K/mol | 379.72 ± 6.8 J/K/mol | 381.98 ± 6.8 J/K/mol | 384.24 ± 6.8 J/K/mol | 386.5 ± 6.8 J/K/mol | molar heat capacity at constant pressure ([2]; 348.2 K): 388.76 ± 6.8 J/K/mol; molar heat capacity at constant pressure ([2]; 353.2 K): 391.02 ± 6.8 J/K/mol; molar heat capacity at constant pressure ([2]; 358.2 K): 393.28 ± 6.8 J/K/mol
4 | CCCCn1cc[n+](C)c1.O=S(=O)([O-])C(F)(F)F [1-butyl-3-methylimidazolium trifluoromethanesulfonate] | 0.23 ± 0.018 S/m | 0.286 ± 0.02 S/m | 0.358 ± 0.081 S/m | 0.437 ± 0.02 S/m | 0.521 ± 0.02 S/m | 0.619 ± 0.018 S/m | 0.724 ± 0.018 S/m | 0.841 ± 0.02 S/m | 0.967 ± 0.02 S/m | 1.25 ± 0.025 S/m | 1.57 ± 0.032 S/m | 443.96 ± 8.6 J/K/mol | 443.96 ± 8.6 J/K/mol | 446.85 ± 8.6 J/K/mol | 449.73 ± 8.6 J/K/mol | 452.61 ± 12 J/K/mol | 452.61 ± 12 J/K/mol | 455.5 ± 12 J/K/mol | 458.38 ± 12 J/K/mol | 461.26 ± 12 J/K/mol | molar heat capacity at constant pressure ([2]; 348.2 K): 464.14 ± 12 J/K/mol; molar heat capacity at constant pressure ([2]; 353.2 K): 467.03 ± 12 J/K/mol; molar heat capacity at constant pressure ([2]; 358.2 K): 469.91 ± 12 J/K/mol
